Data from paper PMC8286840, “Identifying SARS-CoV-2 antiviral compounds by screening for small molecule inhibitors of Nsp3 papain-like protease” (Biochemical Journal, 2021).
Counter-ions that a name gives are not always drawn. Like-named read-outs stand apart in the source and are kept apart here.

Legend:
[1] = molecular target: T1, SARS-CoV-2 PLpro (nsp3 1564–1878) (Severe acute respiratory syndrome coronavirus 2, UniProt P0DTD1); assay: biochemical; set-up: FRET-quenched peptide (Pro3) cleavage by PLpro, 10 min pre-incubation, slope over 20 min, normalised to no-compound control; conditions: low concentration screen, read-out: % of control remaining
[2] = molecular target: T1, SARS-CoV-2 PLpro (nsp3 1564–1878); assay: biochemical; set-up: FRET-quenched peptide (Pro3) cleavage by PLpro, 10 min pre-incubation, slope over 20 min, normalised to no-compound control; conditions: high concentration screen, read-out: % of control remaining

## O=C(c1ccc(/C=C/c2n[nH]c3ccccc23)cc1)N1CCNCC1 [KW 2449]
[1]; Well no.=5108
  remaining activity at 1.25 µM: 102%
[2]; Well no.=5108
  remaining activity at 3.75 µM: 107%

## CCc1c(O)cc(O)c(C(=O)c2ccc(OCCN3CCOCC3)c(OC)c2)c1CC(=O)N(CCOC)CCOC [KW-2478]
[1]; Well no.=5342
  remaining activity at 1.25 µM: 93.8%
[2]; Well no.=5342
  remaining activity at 3.75 µM: 94.5%

## O=C(Cc1ccc(-c2ccc(OCCN3CCOCC3)cc2)cn1)NCc1ccccc1 [KX2-391]
[1]; Well no.=5350
  remaining activity at 1.25 µM: 94.7%
[2]; Well no.=5350
  remaining activity at 3.75 µM: 94.3%

## COc1ccc(CCC(=O)Nc2nc3ccc(Cl)cc3s2)cc1OC [KY02111]
[1]; Well no.=4782
  remaining activity at 1.25 µM: 105%
[2]; Well no.=4782
  remaining activity at 3.75 µM: 98.2%

## C[C@@H]1O[C@@H](O[C@H]2[C@H](Oc3cc(O)c4c(=O)c(O)c(-c5ccc(O)cc5)oc4c3)O[C@H](CO)[C@@H](O)[C@@H]2O)[C@H](O)[C@H](O)[C@H]1O [Kaempferol-7-neohesperidoside]
[1]; Well no.=3307
  remaining activity at 1.25 µM: 102%
[2]; Well no.=3307
  remaining activity at 3.75 µM: 103%

## O=c1c(O)c(-c2ccc(O)cc2)oc2cc(O)cc(O)c12 [Kaempferol]
[1]; Well no.=3426
  remaining activity at 1.25 µM: 89.4%
[1]; Well no.=6246
  remaining activity at 1.25 µM: 105%
[2]; Well no.=3426
  remaining activity at 3.75 µM: 90.3%
[2]; Well no.=6246
  remaining activity at 3.75 µM: 109%

## CC(=O)OC[C@@]1(O)CC23CC[C@@H]4c5ccoc5C=C[C@@]4(C)[C@@H]2CC[C@@H]1C3 [Kahweol Acetate]
[1]; Well no.=3489
  remaining activity at 1.25 µM: 102%
[2]; Well no.=3489
  remaining activity at 3.75 µM: 103%

## C=C(C)[C@H]1CN[C@H](C(=O)O)[C@H]1CC(=O)O [Kainic acid]
[1]; Well no.=829
  remaining activity at 1.25 µM: 106%
[1]; Well no.=7792
  remaining activity at 1.25 µM: 105%
[2]; Well no.=829
  remaining activity at 3.75 µM: 105%
[2]; Well no.=3369
  remaining activity at 3.75 µM: 104%
[2]; Well no.=7792
  remaining activity at 3.75 µM: 102%

## NC[C@H]1O[C@H](O[C@H]2[C@H](O)[C@@H](O[C@H]3O[C@H](CO)[C@@H](O)[C@H](N)[C@H]3O)[C@H](N)C[C@@H]2N)[C@H](O)[C@@H](O)[C@@H]1O [Kanamycin sulfate]
[1]; Well no.=3428
  remaining activity at 1.25 µM: 97.3%
[2]; Well no.=3428
  remaining activity at 3.75 µM: 96.2%

## CCN1C[C@]2(C)CC[C@H](O)[C@]34C1[C@@H](C[C@H]23)[C@@]1(O)C[C@H](OC)[C@H]2C[C@@H]4[C@@H]1[C@H]2O [Karakoline]
[1]; Well no.=831
  remaining activity at 1.25 µM: 102%
[1]; Well no.=3157
  remaining activity at 1.25 µM: 111%
[2]; Well no.=831
  remaining activity at 3.75 µM: 99.5%
[2]; Well no.=3157
  remaining activity at 3.75 µM: 103%

## O=C(O)c1ccccc1C(=O)Nc1ccc(-c2ccccc2)cc1 [Kartogenin]
[1]; Well no.=5620
  remaining activity at 1.25 µM: 91.3%
[2]; Well no.=5620
  remaining activity at 3.75 µM: 96.3%

## O=C1Cc2c([nH]c3ccc(Br)cc23)-c2ccccc2N1 [Kenpaullone]
[1]; Well no.=783
  remaining activity at 1.25 µM: 102%
[1]; Well no.=2554
  remaining activity at 1.25 µM: 104%
[2]; Well no.=783
  remaining activity at 3.75 µM: 102%
[2]; Well no.=2554
  remaining activity at 3.75 µM: 100%

## COc1cc(Nc2ncc3ccn(-c4cccc(CCC#N)c4)c3n2)cc(OC)c1OC [Keratinocyte Differentiation Inducer]
[1]; Well no.=2379
  remaining activity at 1.25 µM: 101%
[2]; Well no.=2379
  remaining activity at 3.75 µM: 103%

## O=C(c1ccc(F)cc1)C1CCN(CCn2c(=O)[nH]c3ccccc3c2=O)CC1 [Ketanserin (tartrate)]
[1]; Well no.=6519
  remaining activity at 1.25 µM: 100%
[2]; Well no.=6519
  remaining activity at 3.75 µM: 103%

## O=C(c1ccc(F)cc1)C1CCN(CCn2c(=O)[nH]c3ccccc3c2=O)CC1 [Ketanserin tartrate]
[1]; Well no.=1515
  remaining activity at 1.25 µM: 93.9%
[2]; Well no.=1515
  remaining activity at 3.75 µM: 95.4%

## O=C(c1ccc(F)cc1)C1CCN(CCn2c(=O)[nH]c3ccccc3c2=O)CC1 [Ketanserin]
[1]; Well no.=2106
  remaining activity at 1.25 µM: 94.1%
[1]; Well no.=6859
  remaining activity at 1.25 µM: 101%
[2]; Well no.=2106
  remaining activity at 3.75 µM: 95.2%
[2]; Well no.=6859
  remaining activity at 3.75 µM: 99%

## CC1(C)C2CCC1(C(=O)O)C(=O)C2 (centres unmarked) [Ketopinic acid]
[1]; Well no.=3353
  remaining activity at 1.25 µM: 92.9%
[2]; Well no.=3353
  remaining activity at 3.75 µM: 96.9%

## O=C(c1ccccc1)c1ccc2n1CCC2C(=O)O (centres unmarked) [Ketorolac tris salt]
[1]; Well no.=925
  remaining activity at 1.25 µM: 108%
[2]; Well no.=925
  remaining activity at 3.75 µM: 103%

## CN1CCC(=C2c3ccccc3CC(=O)c3sccc32)CC1 [Ketotifen (fumarate)]
[1]; Well no.=7421
  remaining activity at 1.25 µM: 100%
[2]; Well no.=7421
  remaining activity at 3.75 µM: 97%

## CN1CCC(=C2c3ccccc3CC(=O)c3sccc32)CC1 [Ketotifen fumarate]
[1]; Well no.=1069
  remaining activity at 1.25 µM: 101%
[2]; Well no.=1069
  remaining activity at 3.75 µM: 95.3%

## CN1CCC(=C2c3ccccc3CC(=O)c3sccc32)CC1 [Ketotifen]
[1]; Well no.=2056
  remaining activity at 1.25 µM: 108%
[2]; Well no.=2056
  remaining activity at 3.75 µM: 109%

## N#CCCCSC(=N)N [Kevetrin (hydrochloride)]
[1]; Well no.=6250
  remaining activity at 1.25 µM: 103%
[2]; Well no.=6250
  remaining activity at 3.75 µM: 103%

## COc1c2occc2c(OC)c2c(=O)cc(C)oc12 [Khellin]
[1]; Well no.=3436
  remaining activity at 1.25 µM: 92.2%
[2]; Well no.=3436
  remaining activity at 3.75 µM: 94.1%

## COC(=O)CCSCc1ccc(-c2onc(C)c2NC(=O)OC(C)c2ccccc2Cl)cc1 (centres unmarked) [Ki16198]
[1]; Well no.=5219
  remaining activity at 1.25 µM: 89.4%
[2]; Well no.=5219
  remaining activity at 3.75 µM: 96.1%

## Cc1noc(-c2ccc(CSCCC(=O)O)cc2)c1NC(=O)OC(C)c1ccccc1Cl (centres unmarked) [Ki16425]
[1]; Well no.=7955
  remaining activity at 1.25 µM: 95.2%
[2]; Well no.=7955
  remaining activity at 3.75 µM: 96.5%

## COc1cc(Oc2ccnc3cc(OC)c(OC)cc23)ccc1NC(=O)NC(C)c1nccs1 (centres unmarked) [Ki20227]
[1]; Well no.=2935
  remaining activity at 1.25 µM: 98.2%
[2]; Well no.=2935
  remaining activity at 3.75 µM: 102%

## Cc1cc(/C=N/NC(=O)c2cc(Br)c(O)c(Br)c2)c(C)n1-c1cccc([N+](=O)[O-])c1 [Kinesore]
[1]; Well no.=7784
  remaining activity at 1.25 µM: 93.8%
[2]; Well no.=7784
  remaining activity at 3.75 µM: 91.7%

## OC[C@H]1O[C@@H](n2cnc3c(NCc4ccco4)ncnc32)[C@H](O)[C@@H]1O [Kinetin riboside]
[1]; Well no.=6632
  remaining activity at 1.25 µM: 91.8%
[2]; Well no.=6632
  remaining activity at 3.75 µM: 96.7%

## c1coc(CNc2ncnc3[nH]cnc23)c1 [Kinetin]
[1]; Well no.=3358
  remaining activity at 1.25 µM: 95.6%
[2]; Well no.=3358
  remaining activity at 3.75 µM: 97.3%

## Cc1ccc(NC(=S)NNc2c([N+](=O)[O-])cc(C(F)(F)F)cc2[N+](=O)[O-])cc1Cl [Kobe0065]
[1]; Well no.=7436
  remaining activity at 1.25 µM: 103%
[2]; Well no.=7436
  remaining activity at 3.75 µM: 106%

## O=C(O)c1cc(=O)c2ccccc2[nH]1 [Kynurenic acid]
[1]; Well no.=1117
  remaining activity at 1.25 µM: 97.8%
[1]; Well no.=7403
  remaining activity at 1.25 µM: 99.6%
[2]; Well no.=1117
  remaining activity at 3.75 µM: 99.5%
[2]; Well no.=7403
  remaining activity at 3.75 µM: 99.4%

## N[C@@H](CC(=O)O)C(=O)O [L -Aspartic acid hemimagnesium salt hydrate]
[1]; Well no.=5897
  remaining activity at 1.25 µM: 103%
[2]; Well no.=5897
  remaining activity at 3.75 µM: 105%
